From the supplement of paper PMC11451515

Columns and labels:
Conditions in all cases: 48 h
SEM cells [1] = assay: cell viability relative to DMSO control; higher = less cytotoxic
Outline: (§1)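 Library compounds in DMSO were pin-dosed in an 11-point threefold series (47 μM to 0.79 nM) onto leukemia cells in 1536-well plates (5 μl). Plates held 500 cells/well of NOMO1 or SEM or 1000 cells/well of P12-Ichikawa, each adapted for at least four passages in each medium. Luminescence was read with CellTiter-Glo One after 48 h at 37°C. Viability means the per-plate percentage relative to DMSO wells, using cell-free wells as background.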

NOMO1 [2] = assay: as above
Outline: as §1

P12-Ichikawa [3] = assay: as above
Outline: as §1

SEM cells [4] = assay: AUC of viability dose-response curve (% viability x log10 dose units); higher = less sensitive
Outline: (§2)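 In 1536-well plates, leukemia cells adapted to each medium (500 or 1000 cells/well) were exposed for 48 h at 37°C to library compounds in DMSO across 11 threefold doses, 47 μM down to 0.79 nM. Viability was read by CellTiter-Glo One luminescence and normalised per plate to DMSO and cell-free wells. A four-parameter log-logistic fit over log10 doses was integrated by trapezoidal rule. This yielded the area under the curve, with over-full-viability curves scaled and quality-control failures dropped.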

NOMO1 [5] = assay: as above
Outline: as §2

P12-Ichikawa [6] = assay: as above
Outline: as §2

CN1CCN(C2=Nc3cc(Cl)ccc3Nc3ccccc32)CC1
cell viability [%]
Conditions | NOMO1 [2] | P12-Ichikawa [3] | SEM cells [1]
HPLM + 10% dialyzed FBS, 0.000781 µM | 103 | 102 | 85.6
HPLM + 10% dialyzed FBS, 0.00234 µM | 100 | 105 | 93.8
HPLM + 10% dialyzed FBS, 0.00702 µM | 110 | 108 | 108
HPLM + 10% dialyzed FBS, 0.0211 µM | 111 | 108 | 107
HPLM + 10% dialyzed FBS, 0.0632 µM | 116 | 91.6 | 83.2
HPLM + 10% dialyzed FBS, 0.19 µM | 119 | 115 | 111
HPLM + 10% dialyzed FBS, 0.569 µM | 113 | 116 | 109
HPLM + 10% dialyzed FBS, 1.71 µM | 132 | 116 | 121
HPLM + 10% dialyzed FBS, 5.12 µM | 112 | 106 | 113
HPLM + 10% dialyzed FBS, 15.4 µM | 106 | 104 | 106
HPLM + 10% dialyzed FBS, 46.1 µM | 59.3 | 94.4 | 25.6
RPMI 5 mM glucose + 10% FBS, 0.000781 µM | 98.6 | 91.6 | 93
RPMI 5 mM glucose + 10% FBS, 0.00234 µM | 94.3 | 120 | 96.1
RPMI 5 mM glucose + 10% FBS, 0.00702 µM | 102 | 115 | 107
RPMI 5 mM glucose + 10% FBS, 0.0211 µM | 98.4 | 120 | 96.1
RPMI 5 mM glucose + 10% FBS, 0.0632 µM | 107 | 95.8 | 68.9
RPMI 5 mM glucose + 10% FBS, 0.19 µM | 101 | 125 | 92.9
RPMI 5 mM glucose + 10% FBS, 0.569 µM | 103 | 107 | 103
RPMI 5 mM glucose + 10% FBS, 1.71 µM | 96.3 | 115 | 110
RPMI 5 mM glucose + 10% FBS, 5.12 µM | 106 | 124 | 109
RPMI 5 mM glucose + 10% FBS, 15.4 µM | 106 | 108 | 112
RPMI 5 mM glucose + 10% FBS, 46.1 µM | 102 | 108 | 20.6
RPMI 5 mM glucose + 10% dialyzed FBS, 0.000781 µM | 87.5 | 100 | 94.3
RPMI 5 mM glucose + 10% dialyzed FBS, 0.00234 µM | 99.6 | 103 | 116
RPMI 5 mM glucose + 10% dialyzed FBS, 0.00702 µM | 99.7 | 103 | 104
RPMI 5 mM glucose + 10% dialyzed FBS, 0.0211 µM | 90.1 | 102 | 83.1
RPMI 5 mM glucose + 10% dialyzed FBS, 0.0632 µM | 115 | 96.7 | 83.5
RPMI 5 mM glucose + 10% dialyzed FBS, 0.19 µM | 106 | 112 | 118
RPMI 5 mM glucose + 10% dialyzed FBS, 0.569 µM | 110 | 109 | 112
RPMI 5 mM glucose + 10% dialyzed FBS, 1.71 µM | 99.3 | 116 | 123
RPMI 5 mM glucose + 10% dialyzed FBS, 5.12 µM | 103 | 105 | 110
RPMI 5 mM glucose + 10% dialyzed FBS, 15.4 µM | 97.9 | 108 | 92
RPMI 5 mM glucose + 10% dialyzed FBS, 46.1 µM | 78.4 | 93.2 | 22.5

AUC of viability dose-response curve
Conditions | NOMO1 [5] | P12-Ichikawa [6] | SEM cells [4]
HPLM + 10% dialyzed FBS | 463 | 477 | 459
RPMI 5 mM glucose + 10% FBS | 471 | 472 | 428
RPMI 5 mM glucose + 10% dialyzed FBS | 470 | 471 | 452

c1ccc2[nH]c(-c3cscn3)nc2c1
cell viability [%]
Conditions | NOMO1 [2] | P12-Ichikawa [3] | SEM cells [1]
HPLM + 10% dialyzed FBS, 0.000781 µM | 122 | 115 | 93.6
HPLM + 10% dialyzed FBS, 0.00234 µM | 113 | 124 | 120
HPLM + 10% dialyzed FBS, 0.00702 µM | 136 | 124 | 111
HPLM + 10% dialyzed FBS, 0.0211 µM | 121 | 128 | 107
HPLM + 10% dialyzed FBS, 0.0632 µM | 133 | 122 | 115
HPLM + 10% dialyzed FBS, 0.19 µM | 135 | 128 | 105
HPLM + 10% dialyzed FBS, 0.569 µM | 122 | 122 | 109
HPLM + 10% dialyzed FBS, 1.71 µM | 133 | 122 | 69
HPLM + 10% dialyzed FBS, 5.12 µM | 107 | 108 | 111
HPLM + 10% dialyzed FBS, 15.4 µM | 102 | 86 | 42.7
HPLM + 10% dialyzed FBS, 46.1 µM | 90.8 | 74.6 | 116
RPMI 5 mM glucose + 10% FBS, 0.000781 µM | – | 113 | 98.5
RPMI 5 mM glucose + 10% FBS, 0.00234 µM | – | 118 | 132
RPMI 5 mM glucose + 10% FBS, 0.00702 µM | – | 110 | 121
RPMI 5 mM glucose + 10% FBS, 0.0211 µM | – | 122 | 85.9
RPMI 5 mM glucose + 10% FBS, 0.0632 µM | – | 128 | 112
RPMI 5 mM glucose + 10% FBS, 0.19 µM | – | 120 | 108
RPMI 5 mM glucose + 10% FBS, 0.569 µM | – | 128 | 126
RPMI 5 mM glucose + 10% FBS, 1.71 µM | – | 120 | 71.3
RPMI 5 mM glucose + 10% FBS, 5.12 µM | – | 135 | 103
RPMI 5 mM glucose + 10% FBS, 15.4 µM | – | 117 | 23.7
RPMI 5 mM glucose + 10% FBS, 46.1 µM | – | 90.7 | 71.7
RPMI 5 mM glucose + 10% dialyzed FBS, 0.000781 µM | – | 124 | 112
RPMI 5 mM glucose + 10% dialyzed FBS, 0.00234 µM | – | 131 | 127
RPMI 5 mM glucose + 10% dialyzed FBS, 0.00702 µM | – | 122 | 121
RPMI 5 mM glucose + 10% dialyzed FBS, 0.0211 µM | – | 124 | 94.4
RPMI 5 mM glucose + 10% dialyzed FBS, 0.0632 µM | – | 130 | 129
RPMI 5 mM glucose + 10% dialyzed FBS, 0.19 µM | – | 127 | 132
RPMI 5 mM glucose + 10% dialyzed FBS, 0.569 µM | – | 130 | 139
RPMI 5 mM glucose + 10% dialyzed FBS, 1.71 µM | – | 121 | 80.6
RPMI 5 mM glucose + 10% dialyzed FBS, 5.12 µM | – | 125 | 124
RPMI 5 mM glucose + 10% dialyzed FBS, 15.4 µM | – | 109 | 33.7
RPMI 5 mM glucose + 10% dialyzed FBS, 46.1 µM | – | 72.9 | 97.3

AUC of viability dose-response curve
Conditions | NOMO1 [5] | P12-Ichikawa [6] | SEM cells [4]
HPLM + 10% dialyzed FBS | 452 | 446 | 439
RPMI 5 mM glucose + 10% FBS | 474 | 470 | 419
RPMI 5 mM glucose + 10% dialyzed FBS | 474 | 461 | 445
